Data as given in patent US20260315431A1, “NANOMATERIAL ENCAPSULATED BIOFILM INHIBITORS FOR DENTAL CARIES TREATMENT” (THE UAB RESEARCH FOUNDATION, priority 2023, published 2026).
Converted amounts (≈) assume the structure as drawn. “Also recorded” adds a separate entry of the source. Like-named read-outs stand apart in the source and are kept apart here.

Experiments:
[1] = Solubility in water containing 1% DMSO (UV spectroscopy); assay type: physicochemical; conditions: organic solvent or mixture; water containing 1% DMSO
Protocol: Solubility of MA1-6 and HA2-6 were determined as reported^46 (Table 1).
General considerations. ^1H-NMR and ^13C-NMR spectra were recorded on Bruker Avance Neo 400 and Avance II 700 spectrometers using TMS or appropriate solvent signals as internal standard. The chemical shift values are given in parts per million (ppm) relative to the internal standard used and the coupling constants (J) are given in hertz (Hz). High resolution mass spectra (HRMS) were recorded using Waters AutoSpec-Ultima™ NT magnetic sector mass spectrometer with Electron Impact (EI) Ionization source. The mass analyzer is an electric-magnetic-electric (EBE) sector (a double focusing sector). Anhydrous solvents used for reactions were purchased in Sure-Seal™ bottles from Aldrich chemical company. Other chemical reagents were purchased from Aldrich or Fisher chemical companies and used as received. Reactions were monitored with thin layer chromatography (TLC), which was done on silica gel plates with fluorescent indicator (Silicycle, silica gel, UV254, 25 μm plates). The TLC spots were observed under UV light with the wavelengths 254 nm and 365 nm. The reaction mixtures were purified by column chromatography using Si gel (32-63 μm) from Dynamic Absorbent, Inc. Melting points were determined on a Mel-Temp II melting point apparatus and are uncorrected. All tested compounds have ≥95% purity as determined by HPLC. HPLC traces were obtained using Shimadzu SPD-M20A. Solubility of compounds were determined by UV-spectroscopy method using Agilent Cary 60 UV-Vis spectrophotometer. HPLC analysis of the final compounds were conducted using Kinetex 5 μm C18 100 Å, LC Column 150×4.6 mm, compound=3 mM, 20 μL injection, solvent: mobile phase buffer, Conditions: 60% MeCN/40% H2O/0.1% Formic acid (isocratic), HPLC method 0-10 min, Signals were analyzed using a 254 nm UV detector. A chromatogram of Mobile Phase Buffer (20 μL) was obtained for comparison.

S. mutans UA159 [2] = test: Biofilm inhibition, S. mutans UA159 (crystal violet, OD562); assay type: cell-based, Streptococcus mutans; conditions: for inhibition at 50 µM: UA159, 50 μM
Protocol: (§1) The bacterial strains, S. mutans UA159, S. gordonii DL1, and S. sanguinis SK36 were inoculated statically at 37° C. under 5% CO2 in Todd Hewitt Broth (THB) for 24 h. The cultures were then diluted with fresh THB (1:5) and reinoculated until optical density at 470 nm (OD470) reached 1. The optical density was read using BioTek 800TS microplate reader at 470 nm for bacterial growth and 562 nm for biofilm stained with crystal violet. Data was plotted in Graphpad Prism9.
Biofilm inhibition assays. Biofilm inhibition assays were performed in polystyrene microtiter 96 well plates. Stock solutions were prepared in chemically defined medium (CDM, JRH Biosciences, Lenexa, KS) with 2% sucrose, 1% bacteria cultures and various concentrations of the small molecule inhibitors to examine their activity against biofilm formation as described^69, 70. These stocks were assayed in 96 well plates in triplicate and incubated at 37° C. and 5% CO2 for 16 h. After reading optical density for bacterial growth, the plate was gently washed with water, dried, and stained with crystal violet, and then gently rinsed again with deionized water leaving the stained biofilm at the bottoms of the wells. Biofilms was dissolved in 200 μL of 30% acetic acid and absorbance at 562 nm was used read to determine biofilm biomass. Each assay was carried out at least in triplicate. Biofilm inhibitory concentration (IC50) of the compounds was determined by serial dilutions.
(§2) All bacterial strains (S. mutans UA159, S. gordonii DL1, and S. sanguinis SK36) were inoculated statically at 37° C. under 5% CO2 environment in Todd Hewitt Broth (THB) for 24 h^[61]. The cultures were then diluted with fresh THB (1:5) and reinoculated until the optical density at 470 nm reaches 1. The optical density was read using BioTek 800 TS absorbance reader at 470 nm for bacterial growth and 562 nm for biofilm stained with crystal violet. Data was plotted in Prism 10.0.2.
Biofilm inhibition assays were performed in polystyrene microtiter 96-well plates. Stock solutions were prepared in chemically defined medium (CDM) with 1% sucrose, 1% bacteria cultures and various concentrations of the small molecule inhibitors to examine their activity against biofilm formation as described^[62, 63]. These stocks were assayed in 96 well plates in triplicate and incubated at 37° C. and 5% CO2 for 16 h. After reading optical density for bacterial growth, the plate was washed, dried, and stained with 0.1% crystal violet which was again rinsed well with deionized water leaving the stained biofilm at the bottoms of the wells. This biofilm was dissolved in 200 μL of 30% acetic acid and absorbance at 562 nm was read to determine amount of biofilm formation. Each assay was carried out at least in triplicate. Biofilm inhibitor concentration (IC50) of the compounds was determined by serial dilutions from 0 μM-50 μM (1% DMSO).

S. mutans UA159 [3] = test: Planktonic growth, S. mutans UA159 (OD470); assay type: cell-based, Streptococcus mutans
Protocol: as §1
(§3) S. mutans, S. gordonii, and S. sanguinis growth assays. Effects of compounds on S. mutans and commensal bacterial growth were evaluated using the growth assay as described^69. S. mutans UA159, S. gordonii DL1, S. sanguinis SK36, cultures were grown for 24 h under 5% CO2 at 37° C. These cultures were then reinoculated with fresh THB (1:5) until OD470=1 when the bacteria were ready to be used. Different concentrations of the inhibitor were assayed in chemically defined media (CDM) with 1% of the bacteria, 1% sucrose and 1% DMSO in 96 well plates. The 96 well plates were incubated under 5% CO2 at 37° C. for 16 h. Growth of the bacteria was read after 16 h at OD470. Each assay was carried out at least in triplicate.
as §2
as §3, with “Effects” for “S. mutans, S. gordonii, and S. sanguinis growth assays. Effects”, “PEHA5, PEHA6, HA5 or HA6” for “compounds”, “described^[62].” for “described^69.”, “PEHA5, PEHA6, HA5 or HA6” for “inhibitor”, “CDM” for “chemically defined media (CDM)”

S. gordonii DL1 = test: Planktonic growth, S. gordonii DL1 (OD470); assay type: cell-based, Streptococcus gordonii
Protocol: as §1, §3, §2
as §3, with “Effects” for “S. mutans, S. gordonii, and S. sanguinis growth assays. Effects”, “PEHA5, PEHA6, HA5 or HA6” for “compounds”, “described^[62].” for “described^69.”, “PEHA5, PEHA6, HA5 or HA6” for “inhibitor”, “CDM” for “chemically defined media (CDM)”

[4] = Streptococcus mutans, UA159, read-out: Biofilm IC50
[5] = Streptococcus mutans, S. mutans UA159 biofilm, read-out: Biofilm IC50

| Compound | solubility [1] | S. mutans biofilm inhibition (S. mutans UA159 [2]; 25 μM) | inhibition at 50 µM (S. mutans UA159 [2]; Streptococcus mutans) | IC50 (S. mutans UA159 [2]; [4]) | inhibition at 25 µM (S. mutans UA159 [2]; Streptococcus mutans, UA159, read-out: S. mutans biofilm inhibition, 25 μM) | IC50 (S. mutans UA159 [2]; [5]) | planktonic growth of S. mutans (S. mutans UA159 [3]; 25 μM) | planktonic growth of S. mutans (S. mutans UA159 [3]; 50 μM) | growth of S. mutans (S. mutans UA159 [3]; 50 μM and 100 μM) | planktonic growth of S. gordonii (S. gordonii DL1; 25 μM) | growth of S. gordonii (S. gordonii DL1; 50 μM and 100 μM (100 μM)) | dose without growth inhibition of commensals (100 μM) relative to biofilm IC50 (S. gordonii DL1; DL1) | growth of S. gordonii (S. gordonii DL1; at biofilm inhibiting doses) | viability of S. mutans (S. mutans UA159 [3]; 25 μM and 50 μM) | growth inhibition of S. gordonii (S. gordonii DL1; 25 μM and 50 μM) |
| --- | --- | --- | --- | --- | --- | --- | --- | --- | --- | --- | --- | --- | --- | --- | --- |
| O=C1/C(=C/c2cc(O)c(O)cc2O)Oc2ccccc21 [HA5, 2-[(2′,4′,5′-Trihydroxyphenyl)methylidene]-2,3-dihydro-1-benzofuran-3-one] | 120 µg/mL (≈ 444 µM) | 90% | > 95% | 6.42 µM | 80% | 6.42 µM | did not affect the planktonic growth | did not inhibit the planktonic growth; also recorded: no effect on growth; also recorded: did not inhibit the growth significantly | did not inhibit S. mutans growth | did not affect the planktonic growth | did not inhibit the growth; also recorded: does not inhibit the growth | 14 fold | without affecting the growth | – | – |
| O=C1/C(=C/c2cc(O)c(O)c(O)c2)Oc2ccccc21 [HA6, 2-[(3′,4′,5′-Trihydroxyphenyl)methylidene]-2,3-dihydro-1-benzofuran-3-one] | 90.8 µg/mL (≈ 336 µM) | – | > 95% | 18.9 µM | – | 18.9 µM | – | did not inhibit the planktonic growth; also recorded: no effect on growth; also recorded: inhibited the planktonic growth slightly | – | – | – | – | without affecting the growth | did not inhibit S. mutans viability | about 10% |
